Among the data in paper PMC12040169 (PLOS Biology, 2025) are viability values, retold here.

The data set in a line: in vitro. The settings on record: human, hela cells, % viability.

Regarding `COc1ccc(C(CCN)c2ccccc2OC)cc1` (stereo not drawn) [CBK266125], the viability at 28.5 h, 10 µM came to 103%.

With `COC(=O)C1C(=O)Oc2ccc3ccccc3c2C1C(C)C(=O)c1ccc(Br)cc1` (stereo not drawn) [CBK266126], the viability at 28.5 h, 10 µM was determined as 114%.

Regarding `CC(Sc1nc2ccccc2[nH]1)C(=O)Nc1ccc(S(N)(=O)=O)cc1` (stereo not drawn) [CBK266128], the viability at 28.5 h, 10 µM amounted to 114%.

As for `O=C(Nc1ccccc1[N+](=O)[O-])C1Cc2ccccc2CN1S(=O)(=O)c1ccc(F)cc1` (stereo not drawn) [CBK266129], the viability at 28.5 h, 10 µM amounted to 102%.

`COc1ccc(S(=O)(=O)Nc2ccc3oc4c(c3c2)CC(C)CC4)cc1[N+](=O)[O-]` (stereo not drawn) [CBK266131]: the viability at 28.5 h, 10 µM is 94.3%.

As to `Cc1ccc(-n2c(SCC(=O)c3ccc4c(c3)OCO4)nnc2-c2ccncc2)cc1` [CBK266132], the viability at 28.5 h, 10 µM was 104%.

On to `O=C(CSc1nnc(-c2cccnc2)n1-c1ccc(Br)cc1)Nc1ccc2c(c1)OCCO2` [CBK266133], for which the viability at 28.5 h, 10 µM worked out at 96.4%.

On to `CC(C)C(NC(=O)C(C)(C)Oc1ccc(Cl)cc1)C(=O)O` (stereo not drawn) [CBK266138], for which the viability at 28.5 h, 10 µM was determined as 94.5%.

Consider `COC(=O)CSc1nnc(COc2ccc3c(c2)OCO3)n1-c1ccccc1` [CBK266139], for which the viability at 28.5 h, 10 µM is 107%.

As for `CN1CCN(c2ccc(NC(=O)c3cccc(Br)c3)cc2)CC1` [CBK266140], the viability at 28.5 h, 10 µM worked out at 97.5%.

As to `S=C(Nc1ccc(Nc2ccccc2)cc1)N1CCN(Cc2ccc3c(c2)OCO3)CC1` [CBK266141], the viability at 28.5 h, 10 µM was 96.7%.

On to `CCOC(=O)N1CCN(C(=O)C2CC=CCC2C(=O)O)CC1` (stereo not drawn) [CBK266142], for which the viability at 28.5 h, 10 µM amounted to 104%.

On to `S=C(Nc1ccc(Nc2ccccc2)cc1)N1CCN(C/C=C/c2ccccc2)CC1` [CBK266149], for which the viability at 28.5 h, 10 µM turned out to be 102%.

Consider `NC(=O)CSc1nnc(SCc2cccc3ccccc23)s1` [CBK266150], for which the viability at 28.5 h, 10 µM is 106%.

`CC(=O)OC(COc1cccc(Cl)c1)Cn1cnc2cc(C)c(C)cc21` (stereo not drawn) [CBK266152]: the viability at 28.5 h, 10 µM amounted to 86.6%.

For the molecule `O=C(O)C1CC(O)CN1S(=O)(=O)c1ccc([N+](=O)[O-])cc1` (stereo not drawn) [CBK266158], the viability at 28.5 h, 10 µM came to 100%.

Consider `CC(=O)OC(COc1ccc(F)cc1)Cn1cnc2ccccc21` (stereo not drawn) [CBK266162], for which the viability at 28.5 h, 10 µM is 104%.

With `CCOC(=O)N1CCN(CC(=O)Nc2cc3c(cc2C(C)=O)OCO3)CC1` [CBK266163], the viability at 28.5 h, 10 µM is 99.8%.

In the case of `Cc1cc(C)cc(NC(=O)C(Cc2ccccc2)C(=O)Nc2cc(C)cc(C)c2)c1` [CBK266165], the viability at 28.5 h, 10 µM came out at 106%.

For `CC1(C)Cc2nc3sc(C(=O)O)c(NC(=O)c4ccccc4)c3cc2CO1` [CBK266166], the viability at 28.5 h, 10 µM is 98.4%.

Regarding `CC(=O)Nc1ccc(C(=O)CSc2nc(-c3ccccc3)c(-c3ccccc3)o2)cc1` [CBK266168], the viability at 28.5 h, 10 µM amounted to 87.6%.

For `COc1ccc(-c2cc(C(F)(F)F)nc(SCC(=O)Nc3ccc4c(c3)OCO4)n2)cc1OC` [CBK266169], the viability at 28.5 h, 10 µM was found to be 101%.

For the molecule `CCn1c(SCC(=O)Nc2ccc(Br)cc2F)nnc1-c1ccc(OC)cc1` [CBK266172], the viability at 28.5 h, 10 µM is 100%.

`Fc1ccc(CCNC(=S)NC2CCCC2)cc1` [CBK266175]: the viability at 28.5 h, 10 µM amounted to 99.9%.

Turning to `O=C(CSc1nnc(-c2ccncc2)n1C1CCCCC1)Nc1ncc2c(n1)CC(c1ccccc1)CC2=O` (stereo not drawn) [CBK266177], the viability at 28.5 h, 10 µM stood at 94.3%.

With `O=C(COc1ccc(Br)cc1)Nc1ccc(CN2CCCCC2)cc1` [CBK266181], the viability at 28.5 h, 10 µM amounted to 99.5%.

As to `Cc1ccccc1OCCn1c(CCCO)nc2ccccc21` [CBK266182], the viability at 28.5 h, 10 µM turned out to be 115%.

With `Cc1ccc(C(=O)NC(C)c2nnc(SCC(=O)c3ccc(Br)cc3)n2C)cc1` (stereo not drawn) [CBK266183], the viability at 28.5 h, 10 µM is 93.8%.

For `Cc1ccc2nc(-c3ccc(NC(=O)CSc4nnc(C)s4)cc3)sc2c1` [CBK266185], the viability at 28.5 h, 10 µM is 92.5%.

As to `Cc1ccc(O)c(NC(=O)c2nc3nc(C)cc(C(F)F)n3n2)c1` [CBK266186], the viability at 28.5 h, 10 µM came out at 99.6%.

The term viability denotes a read-out of living cells in per cent, often relative to untreated cells.
